In patent US20230089368A1, “POLYAROMATIC UREA DERIVATIVES AND THEIR USE IN THE TREATMENT OF MUSCLE DISEASES” (ANAGENESIS BIOTECHNOLOGIES S.A.S., priority 2019, published 2023):

Legend:
[1] = test system: muscle progenitors (hMP) from DMD hiPSC or WT hiPSC; assay: Myotube assay: myogenic activity (total myotube area per well); type: cell-based, human; conditions: Homo sapiens, 72 h, myotube assay, compounds incubated 3 days; for Emax: read-out: MA (normalized Myotube Area, efficacy); for EC50: 10 points dose-response 1.5 nM to 30 μM, read-out: EC50 (myogenic activity, half-maximal generation of myotubes)
Description: An in vitro assay for assessing the efficacy of compounds for use in treating, ameliorating, delaying, curing and/or preventing a disease or condition associated with muscle cells and/or satellite cells is described in example 78. Herein, the generation of myotubes and satellite cells after adding a compound to a myotube assay workflow is assessed. Said myotube assay workflow is derived from wild-type or DMD human induced pluripotent stem cells (WT hiPSC or DMD hiPSC). Before the addition of said compound, the assay comprises satellite-like cells, but no significant amount of myotubes.
(§1) The efficacy of said compound for use in treating, ameliorating, delaying, curing and/or preventing a disease or condition associated with muscle cells and/or satellite cells is positively correlated with the generation of myotubes (i.e. the increase of the area occupied by myotubes on the assay) and/or satellite cells (i.e. the increase of the number of satellite cells) in the assay after adding said compound. The generation of myotubes by the addition of said compound is expressed as the EC50 value, the concentration of said compound that corresponds with the half-maximal generation of myotubes, and the MA (normalized myotube area) value, the normalized area occupied by generated myotubes on the assay. […] Since muscle cells are formed from myotubes during myogenesis, the generation of myotubes in the assay is a good indicator of the ability of said compound to induce the formation of functional muscle cells in vivo. The number of satellite cells is measured as the percentage of Pax7 positive cells, relative to the total number of cells in the assay, as shown in FIG. 3. The percentage of Pax7 is a good indicator of the ability of said compound to induce the formation of satellite cells which are able to play a role in muscle repair and regeneration in vivo.
(§2) DMD human induced pluripotent stem cells (hereafter “DMD hiPSC”), generated from the NORM-1 hiPSC WT cell line by gene editing, or WT human induced pluripotent stem cells (hereafter “WT hiPSC”), being NORM-1 hiPSC wt cell line, have been differentiated according to Chal et al. 2015, 2016, to produce muscle progenitors (hereafter “hMP”). The hMP population contains satellite-like cells (i.e Pax7-positive cells) and satellite cells' progenies (i.e. Myogenin-positive cells).
(§3) FIG. 1 provides an example of a Myotube assay workflow. At day 0, hMP are thawed and 3.1 million cells are plated into a T75-flask coated with hESC-qualified Matrigel™ (Corning) in SkGM proliferating medium (PromoCells), supplemented with 5 μM Y-27632 (Tocris Bioscience). On day 2, SkGM proliferating medium is refreshed. On day 4, hMP are harvested and transferred into a 384-well plate coated with collagen type I at a density of 3500 cells/well in a DMEM-based medium, containing 5% of knockout serum replacement (Gibco), 1% PenStrep (Gibco), 1% MEM NEAA (Gibco) and 0.1 mM 2-mercaptoethanol (Gibco) (hereafter “K5 medium”) and 5 μM Y-27632. Compounds to be tested are then added in the medium and incubated for 3 days at 37° C. On day 7, cells are fixed and immunostained. For example, myotubes (alpha-actinin staining) and satellite-like (Pax7 staining) cells can be analyzed for total myotube area per well or Pax7-positive cell quantification.
(§4) DMD hMP were put in the Myotube assay according to the workflow described in Example 2.1. In particular, compound (i) was added at concentrations ranging from 1.5 nM to 30 μM, starting from day 4. hMP were cultivated for three more days in presence of compound (i), then fixed and analyzed for quantification of total myotube area per well. Duplicates of each condition were averaged.
Qualitative scale: ++++: EC50<500 nM; +++: 500 nM≤EC50<1000 nM; ++: 1000 nM≤EC50<5000 nM; +: EC50≥5000 nM; +++: MA≥75%; ++: 50%≤MA<75%; +: 25%≤MA<50%.

[2] = test system: satellite-like cells (Pax7-positive cells) in hMP; assay: Myotube assay: Pax7-positive (satellite-like) cell quantification; type: cell-based, human; design: key to Pax7% (pool of Pax7-positive cells) / Pax7: −: Depletes the pool of cells, while positively affects the myotubes; +: Maintains or increases the pool of cells, with at least 1 of the highest concentration known to be cytotoxic; ++: Maintains or increases the pool of cells, without any toxicity; conditions: myotube assay, compounds incubated 3 days
Source text: as §1, §2, §3
as §4, with “percentage” for “quantification”, “Pax7-positive cells and nuclei number.” for “total myotube area per well.”
(−): Depletes the pool of cells, while positively affects the myotubes; (+): Maintains or increases the pool of cells, with at least 1 of the highest concentration known to be cytotoxic; and (++) Maintains or increases the pool of cells, without any toxicity.

| EC50 [1] [µM] | SMILES | Emax [1] [%] | Pax7% (pool of Pax7-positive cells) [2] |
| --- | --- | --- | --- |
| – | CSc1cc(Oc2ccnc3[nH]c(=O)cnc23)ccc1NC(=O)Nc1cc(C(C)(C)C)nn1-c1ccccc1Cl [(at), 1-(3-(tert-butyl)-1-(2-chlorophenyl)-1H-pyrazol-5-yl)-3-(2-(methylthio)-4-((3-oxo-3,4-dihydropyrido[2,3-b]pyrazin-8-yl)oxy)phenyl)urea] | ≥ 75 | ++ |
| – | CSc1cc(Oc2ccnc3c2ncc(=O)n3C)ccc1NC(=O)Nc1cc(C(C)(C)C)nn1-c1ccccc1 [(au), 1-(3-(tert-butyl)-1-phenyl-1H-pyrazol-5-yl)-3-(4-((4-methyl-3-oxo-3,4-dihydropyrido[2,3-b]pyrazin-8-yl)oxy)-2-(methylthio)phenyl)urea] | ≥ 75 | ++ |
| ≥ 5 | COc1ccccc1-n1nc(C(C)(C)C)cc1NC(=O)Nc1ccc(Oc2ccnc3[nH]c(=O)cnc23)cc1SC [(av), 1-(3-(tert-butyl)-1-(2-methoxyphenyl)-1H-pyrazol-5-yl)-3-(2-(methylthio)-4-((3-oxo-3,4-dihydropyrido[2,3-b]pyrazin-8-yl)oxy)phenyl)urea] | ≥ 75 | ++ |
| – | COc1cccc(-n2nc(C(C)(C)C)cc2NC(=O)Nc2ccc(Oc3ccnc4[nH]c(=O)cnc34)cc2SC)c1 [(aw), 1-(3-(tert-butyl)-1-(3-methoxyphenyl)-1H-pyrazol-5-yl)-3-(2-(methylthio)-4-((3-oxo-3,4-dihydropyrido[2,3-b]pyrazin-8-yl)oxy)phenyl)urea] | ≥ 75 | + |
| – | CSc1cc(Oc2ccnc3[nH]c(=O)cnc23)ccc1NC(=O)Nc1nc(-c2ccc(F)c(F)c2)cs1 [(ax), 1-(4-(3,4-difluorophenyl)thiazol-2-yl)-3-(2-(methylthio)-4-((3-oxo-3,4-dihydropyrido[2,3-b]pyrazin-8-yl)oxy)phenyl)urea] | 50 to 75 | ++ |
| 1 to 5 | CSc1cc(Oc2ccnc3[nH]c(=O)cnc23)ccc1NC(=O)Nc1nnc(-c2ccccc2)s1 [(ay), 1-(2-(methylthio)-4-((3-oxo-3,4-dihydropyrido[2,3-b]pyrazin-8-yl)oxy)phenyl)-3-(5-phenyl-1,3,4-thiadiazol-2-yl)urea] | ≥ 75 | ++ |
| – | Cc1ccc(-n2nc(C(C)(C)C)cc2NC(=O)Nc2ccc(Oc3ccnc4[nH]c(=O)cnc34)cc2C(F)(F)F)cc1 [(az), 1-(3-(tert-butyl)-1-(p-tolyl)-1H-pyrazol-5-yl)-3-(4-((3-oxo-3,4-dihydropyrido[2,3-b]pyrazin-8-yl)oxy)-2-(trifluoromethyl)phenyl)urea] | ≥ 75 | ++ |
| – | CC(C)c1cc(NC(=O)Nc2ccc(Oc3ccnc4[nH]c(=O)cnc34)cc2F)n(-c2ccccc2)n1 [(b), 1-(2-fluoro-4-((3-oxo-3,4-dihydropyrido[2,3-b]pyrazin-8-yl)oxy)phenyl)-3-(3-isopropyl-1-phenyl-1H-pyrazol-5-yl)urea] | 25 to 50 | ++ |
| – | CC(C)(C)c1cnc(NC(=O)Nc2ccc(Oc3ccnc4[nH]c(=O)cnc34)c3ccccc23)s1 [(ba), 1-(5-(tert-butyl)thiazol-2-yl)-3-(4-((3-oxo-3,4-dihydropyrido[2,3-b]pyrazin-8-yl)oxy)naphthalen-1-yl)urea] | ≥ 75 | ++ |
| – | CC(C)(C)c1cc(NC(=O)Nc2ccc(Oc3ccnc4[nH]c(=O)cnc34)c3ccccc23)n(-c2ccc3ncccc3c2)n1 [(bb), 1-(3-(tert-butyl)-1-(quinolin-6-yl)-1H-pyrazol-5-yl)-3-(4-((3-oxo-3,4-dihydropyrido[2,3-b]pyrazin-8-yl)oxy)naphthalen-1-yl)urea] | ≥ 75 | + |
| 1 to 5 | COc1cc(Oc2ccnc3[nH]c(=O)cnc23)ccc1NC(=O)Nc1cc(C(C)(C)C)nn1-c1ccccc1 [(bc), 1-(3-(tert-butyl)-1-phenyl-1H-pyrazol-5-yl)-3-(2-methoxy-4-((3-oxo-3,4-dihydropyrido[2,3-b]pyrazin-8-yl)oxy)phenyl)urea] | ≥ 75 | ++ |
| – | CSc1cc(Oc2ccnc3[nH]c(=O)cnc23)ccc1NC(=O)Nc1cc(C(C)(C)C)nn1-c1ccc(C)nc1 [(bd), 1-(3-(tert-butyl)-1-(6-methylpyridin-3-yl)-1H-pyrazol-5-yl)-3-(2-(methylthio)-4-((3-oxo-3,4-dihydropyrido[2,3-b]pyrazin-8-yl)oxy)phenyl)urea] | ≥ 75 | + |
| 0.5 to 1 | CSc1cc(Oc2ccnc3c2CCCN3)ccc1NC(=O)Nc1cc(C(C)(C)C)nn1-c1ccccc1 [(be), 1-(3-(tert-butyl)-1-phenyl-1H-pyrazol-5-yl)-3-(2-(methylthio)-4-((5,6,7,8-tetrahydro-1,8-naphthyridin-4-yl)oxy)phenyl)urea] | ≥ 75 | ++ |
| – | CNC(=O)c1cc(Oc2ccc(NC(=O)Nc3cc(C(C)(C)C)nn3-c3ccc4ncccc4c3)c3ccccc23)ccn1 [(bf), 4-((4-(3-(3-(tert-butyl)-1-(quinolin-6-yl)-1H-pyrazol-5-yl)ureido)naphthalen-1-yl)oxy)-N-methylpicolinamide] | ≥ 75 | + |
| ≥ 5 | CSc1cc(Oc2ccnc3[nH]c(=O)cnc23)ccc1NC(=O)Nc1cc(C(C)(C)C)nn1CCN(C)C [(bg), 1-(3-(tert-butyl)-1-(2-(dimethylamino)ethyl)-1H-pyrazol-5-yl)-3-(2-(methylthio)-4-((3-oxo-3,4-dihydropyrido[2,3-b]pyrazin-8-yl)oxy)phenyl)urea] | ≥ 75 | ++ |
| – | CSc1cc(Oc2ccnc3[nH]c(=O)cnc23)ccc1NC(=O)Nc1cc(C(C)(C)C)nn1CCCN1CCOCC1 [(bh), 1-(3-(tert-butyl)-1-(3-morpholinopropyl)-1H-pyrazol-5-yl)-3-(2-(methylthio)-4-((3-oxo-3,4-dihydropyrido[2,3-b]pyrazin-8-yl)oxy)phenyl)urea] | ≥ 75 | ++ |
| – | CSc1cc(Oc2ccnc(NC(=O)OC(C)(C)C)c2)ccc1NC(=O)Nc1cc(C(C)(C)C)nn1-c1ccccc1 [(bi), tert-butyl N-[4-{4-[(5-tert-butyl-2-phenyl-pyrazol-3-yl)carbamoylamino]-3-methylsulfanyl-phenoxy}-2-pyridyl]carbamate] | ≥ 75 | ++ |
| – | CSc1cc(Oc2ccnc(N)c2)ccc1NC(=O)Nc1cc(C(C)(C)C)nn1-c1ccccc1.Cl [(bj), 1-(4-((2-aminopyridin-4-yl)oxy)-2-(methylthio)phenyl)-3-(3-(tert-butyl)-1-phenyl-1H-pyrazol-5-yl)urea hydrochloride] | ≥ 75 | ++ |
